Laboratory results taken from patent publication US12495798B2, “Nicotinamide compound and herbicidal composition comprising compound” (KOREA RESEARCH INSTITUTE OF CHEMICAL TECHNOLOGY, priority 2019, dated 2025).

Legend:
Assay type in all cases: in vivo
crabgrass = assay: Herbicidal activity test against upland field weeds (foliar treatment test); conditions: Digitaria sanguinalis, 50 g ai/ha, scale 0-100
In short: (§1)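 Visual 0–100 control ratings relative to untreated plants, taken 14 (or 21) days after spraying foliage at 50 or 75 g a.i./ha. Spray solution: 50% acetone with 0.1% Tween-20; plants kept in greenhouse at 30±5 °C, 14 h light/10 h dark.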

indian jointvetch = assay: as above; conditions: 50 g ai/ha, scale 0-100
In short: as §1

velvetleaf = assay: as above; conditions: Abutilon theophrasti, 50 g ai/ha, scale 0-100, read-out: Foliar treatment herbicidal activity, velvet leaf
In short: as §1

cocklebur = assay: as above; conditions: Xanthium strumarium, 50 g ai/ha, scale 0-100
In short: as §1

bindweed = assay: as above; conditions: 50 g ai/ha, scale 0-100
In short: as §1

corn = assay: Phytotoxicity test for upland field crops (foliar treatment test); design: key: 0 (no harm); 9 (complete withered)
In short: (§2)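 Post-emergence spray at 19–300 g a.i./ha (acetone/Tween-20 diluent, 100 ml/m²) onto greenhouse-grown plants. Damage rated 7 and 14 (optionally 21) days later on a 0–9 scale relative to untreated plants.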

cotton = assay: as above; design: key: 0 (no harm); 9 (complete withered)
In short: as §2

rice = assay: as above; design: key: 0 (no harm); 9 (complete withered)
In short: as §2

soybean = assay: as above; design: key: 0 (no harm); 9 (complete withered)
In short: as §2

wheat = assay: as above; design: key: 0 (no harm); 9 (complete withered)
In short: as §2

[1] = 50 g ai/ha, Corn (7 days after treatment)
[2] = 50 g ai/ha, Corn (14 days after treatment)
[3] = 100 g ai/ha, Corn (7 days after treatment)
[4] = 100 g ai/ha, Corn (14 days after treatment)
[5] = 50 g ai/ha, Cotton (7 days after treatment)
[6] = 50 g ai/ha, Cotton (14 days after treatment)
[7] = 100 g ai/ha, Cotton (7 days after treatment)
[8] = 100 g ai/ha, Cotton (14 days after treatment)
[9] = 50 g ai/ha, Rice (7 days after treatment)
[10] = 50 g ai/ha, Rice (14 days after treatment)
[11] = 100 g ai/ha, Rice (7 days after treatment)
[12] = 100 g ai/ha, Rice (14 days after treatment)
[13] = 50 g ai/ha, Soybean (7 days after treatment)
[14] = 50 g ai/ha, Soybean (14 days after treatment)
[15] = 100 g ai/ha, Soybean (7 days after treatment)
[16] = 100 g ai/ha, Soybean (14 days after treatment)
[17] = 50 g ai/ha, Wheat (7 days after treatment)
[18] = 50 g ai/ha, Wheat (14 days after treatment)
[19] = 100 g ai/ha, Wheat (7 days after treatment)
[20] = 100 g ai/ha, Wheat (14 days after treatment)

Structure (SMILES): CON(Cc1nnn(C)n1)Cc1nc(C(F)(F)F)ccc1C(=O)Nc1nnnn1C [Compound No. 2-97, 2-((methoxy((2-methyl-2H-tetrazol-5-yl)methyl)amino)methyl)-N-(1-methyl-1H-tetrazol-5-yl)-6-(trifluoromethyl)nicotinamide]
- pest or weed control at 50 g/ha (crabgrass): 95%
- pest or weed control at 50 g/ha (indian jointvetch): 95%
- pest or weed control at 50 g/ha (velvetleaf): 95%
- pest or weed control at 50 g/ha (cocklebur): 95%
- pest or weed control at 50 g/ha (bindweed): 80%
- Foliar treatment phytotoxicity, Corn (corn; [1]): 0
- Foliar treatment phytotoxicity, Corn (corn; [2]): 0
- Foliar treatment phytotoxicity, Corn (corn; [3]): 2
- Foliar treatment phytotoxicity, Corn (corn; [4]): 1
- Foliar treatment phytotoxicity, Cotton (cotton; [5]): 5
- Foliar treatment phytotoxicity, Cotton (cotton; [6]): 9
- Foliar treatment phytotoxicity, Cotton (cotton; [7]): 6
- Foliar treatment phytotoxicity, Cotton (cotton; [8]): 9
- Foliar treatment phytotoxicity, Rice (rice; [9]): 6
- Foliar treatment phytotoxicity, Rice (rice; [10]): 8
- Foliar treatment phytotoxicity, Rice (rice; [11]): 6
- Foliar treatment phytotoxicity, Rice (rice; [12]): 9
- Foliar treatment phytotoxicity, Soybean (soybean; [13]): 5
- Foliar treatment phytotoxicity, Soybean (soybean; [14]): 6
- Foliar treatment phytotoxicity, Soybean (soybean; [15]): 7
- Foliar treatment phytotoxicity, Soybean (soybean; [16]): 9
- Foliar treatment phytotoxicity, Wheat (wheat; [17]): 0
- Foliar treatment phytotoxicity, Wheat (wheat; [18]): 0
- Foliar treatment phytotoxicity, Wheat (wheat; [19]): 0
- Foliar treatment phytotoxicity, Wheat (wheat; [20]): 0

Structure (SMILES): Cn1nnc(CSCc2nc(C(F)(F)F)ccc2C(=O)N(c2nnnn2C)S(C)(=O)=O)n1 [Compound No. 2-110, N-(1-methyl-1H-tetrazol-5-yl)-2-((((2-methyl-2H-tetrazol-5-yl)methyl)thio)methyl)-N-(methylsulfonyl)-6-(trifluoromethyl)nicotinamide]
- pest or weed control at 50 g/ha (crabgrass): 70%
- pest or weed control at 50 g/ha (indian jointvetch): 95%
- pest or weed control at 50 g/ha (velvetleaf): 80%
- pest or weed control at 50 g/ha (cocklebur): 95%
- pest or weed control at 50 g/ha (bindweed): 98%
- Foliar treatment phytotoxicity, Corn (corn; [1]): 0
- Foliar treatment phytotoxicity, Corn (corn; [2]): 0
- Foliar treatment phytotoxicity, Corn (corn; [3]): 0
- Foliar treatment phytotoxicity, Corn (corn; [4]): 0
- Foliar treatment phytotoxicity, Wheat (wheat; [17]): 0
- Foliar treatment phytotoxicity, Wheat (wheat; [18]): 0
- Foliar treatment phytotoxicity, Wheat (wheat; [19]): 0
- Foliar treatment phytotoxicity, Wheat (wheat; [20]): 0

Structure (SMILES): Cc1nc(COCc2nc(C(F)(F)F)ccc2C(=O)Nc2nnnn2C)nn1C [Compound No. 2-116, 2-(((1,5-dimethyl-1H-1,2,4-triazol-3-yl)methoxy)methyl)-N-(1-methyl-1H-tetrazol-5-yl)-6-(trifluoromethyl)nicotinamide]
- pest or weed control at 50 g/ha (crabgrass): 80%
- pest or weed control at 50 g/ha (indian jointvetch): 40%
- pest or weed control at 50 g/ha (velvetleaf): 90%
- pest or weed control at 50 g/ha (cocklebur): 98%
- pest or weed control at 50 g/ha (bindweed): 90%
- Foliar treatment phytotoxicity, Corn (corn; [1]): 1
- Foliar treatment phytotoxicity, Corn (corn; [2]): 0
- Foliar treatment phytotoxicity, Corn (corn; [3]): 2
- Foliar treatment phytotoxicity, Corn (corn; [4]): 2
- Foliar treatment phytotoxicity, Cotton (cotton; [5]): 2
- Foliar treatment phytotoxicity, Cotton (cotton; [6]): 1
- Foliar treatment phytotoxicity, Cotton (cotton; [7]): 3
- Foliar treatment phytotoxicity, Cotton (cotton; [8]): 2
- Foliar treatment phytotoxicity, Rice (rice; [9]): 4
- Foliar treatment phytotoxicity, Rice (rice; [10]): 5
- Foliar treatment phytotoxicity, Rice (rice; [11]): 4
- Foliar treatment phytotoxicity, Rice (rice; [12]): 5
- Foliar treatment phytotoxicity, Soybean (soybean; [13]): 2
- Foliar treatment phytotoxicity, Soybean (soybean; [14]): 3
- Foliar treatment phytotoxicity, Soybean (soybean; [15]): 3
- Foliar treatment phytotoxicity, Soybean (soybean; [16]): 5
- Foliar treatment phytotoxicity, Wheat (wheat; [17]): 0
- Foliar treatment phytotoxicity, Wheat (wheat; [18]): 0
- Foliar treatment phytotoxicity, Wheat (wheat; [19]): 0
- Foliar treatment phytotoxicity, Wheat (wheat; [20]): 0

Structure (SMILES): Cc1nc(COCc2nc(C(F)(F)F)ccc2C(=S)Nc2nnnn2C)nn1C [Compound No. 2-117, 2-(((1,5-dimethyl-1H-1,2,4-triazol-3-yl)methoxy)methyl)-N-(1-methyl-1H-tetrazol-5-yl)-6-(trifluoromethyl)pyridin-3-carbothioamide]
- pest or weed control at 50 g/ha (crabgrass): 95%
- pest or weed control at 50 g/ha (indian jointvetch): 40%
- pest or weed control at 50 g/ha (velvetleaf): 90%
- pest or weed control at 50 g/ha (cocklebur): 90%
- pest or weed control at 50 g/ha (bindweed): 70%
- Foliar treatment phytotoxicity, Corn (corn; [1]): 1
- Foliar treatment phytotoxicity, Corn (corn; [2]): 1
- Foliar treatment phytotoxicity, Corn (corn; [3]): 3
- Foliar treatment phytotoxicity, Corn (corn; [4]): 2
- Foliar treatment phytotoxicity, Cotton (cotton; [5]): 3
- Foliar treatment phytotoxicity, Cotton (cotton; [6]): 2
- Foliar treatment phytotoxicity, Cotton (cotton; [7]): 4
- Foliar treatment phytotoxicity, Cotton (cotton; [8]): 2
- Foliar treatment phytotoxicity, Rice (rice; [9]): 3
- Foliar treatment phytotoxicity, Rice (rice; [10]): 6
- Foliar treatment phytotoxicity, Rice (rice; [11]): 4
- Foliar treatment phytotoxicity, Rice (rice; [12]): 5
- Foliar treatment phytotoxicity, Soybean (soybean; [13]): 3
- Foliar treatment phytotoxicity, Soybean (soybean; [14]): 5
- Foliar treatment phytotoxicity, Soybean (soybean; [15]): 4
- Foliar treatment phytotoxicity, Soybean (soybean; [16]): 6
- Foliar treatment phytotoxicity, Wheat (wheat; [17]): 0
- Foliar treatment phytotoxicity, Wheat (wheat; [18]): 0
- Foliar treatment phytotoxicity, Wheat (wheat; [19]): 1
- Foliar treatment phytotoxicity, Wheat (wheat; [20]): 0

Structure (SMILES): Cn1nc(COCc2nc(C(F)(F)F)ccc2C(=O)Nc2nnnn2C)nc1C#N [Compound No. 2-134, 2-(((5-cyano-1-methyl-1H-1,2,4-triazol-3-yl)methoxy)methyl)-N-(1-methyl-1H-tetrazol-5-yl)-6-(trifluoromethyl)nicotinamide]
- pest or weed control at 50 g/ha (crabgrass): 80%
- pest or weed control at 50 g/ha (indian jointvetch): 70%
- pest or weed control at 50 g/ha (velvetleaf): 60%
- pest or weed control at 50 g/ha (cocklebur): 50%
- pest or weed control at 50 g/ha (bindweed): 98%
- Foliar treatment phytotoxicity, Corn (corn; [1]): 0
- Foliar treatment phytotoxicity, Corn (corn; [2]): 0
- Foliar treatment phytotoxicity, Corn (corn; [3]): 0
- Foliar treatment phytotoxicity, Corn (corn; [4]): 0
- Foliar treatment phytotoxicity, Cotton (cotton; [5]): 3
- Foliar treatment phytotoxicity, Cotton (cotton; [6]): 2
- Foliar treatment phytotoxicity, Cotton (cotton; [7]): 3
- Foliar treatment phytotoxicity, Cotton (cotton; [8]): 8
- Foliar treatment phytotoxicity, Rice (rice; [9]): 3
- Foliar treatment phytotoxicity, Rice (rice; [10]): 6
- Foliar treatment phytotoxicity, Rice (rice; [11]): 3
- Foliar treatment phytotoxicity, Rice (rice; [12]): 7
- Foliar treatment phytotoxicity, Soybean (soybean; [13]): 4
- Foliar treatment phytotoxicity, Soybean (soybean; [14]): 6
- Foliar treatment phytotoxicity, Soybean (soybean; [15]): 4
- Foliar treatment phytotoxicity, Soybean (soybean; [16]): 8
- Foliar treatment phytotoxicity, Wheat (wheat; [17]): 0
- Foliar treatment phytotoxicity, Wheat (wheat; [18]): 0
- Foliar treatment phytotoxicity, Wheat (wheat; [19]): 0
- Foliar treatment phytotoxicity, Wheat (wheat; [20]): 0

Structure (SMILES): Cn1nc(COCc2nc(C(F)(F)F)ccc2C(=O)Nc2nnnn2C)nc1Br [Compound No. 2-136, 2-(((5-bromo-1-methyl-1H-1,2,4-triazol-3-yl)methoxy)methyl)-N-(1-methyl-1H-tetrazol-5-yl)-6-(trifluoromethyl)nicotinamide]
- pest or weed control at 50 g/ha (crabgrass): 60%
- pest or weed control at 50 g/ha (indian jointvetch): 20%
- pest or weed control at 50 g/ha (velvetleaf): 40%
- pest or weed control at 50 g/ha (cocklebur): 95%
- pest or weed control at 50 g/ha (bindweed): 50%
- Foliar treatment phytotoxicity, Corn (corn; [1]): 0
- Foliar treatment phytotoxicity, Corn (corn; [2]): 0
- Foliar treatment phytotoxicity, Corn (corn; [3]): 2
- Foliar treatment phytotoxicity, Corn (corn; [4]): 3
- Foliar treatment phytotoxicity, Cotton (cotton; [5]): 3
- Foliar treatment phytotoxicity, Cotton (cotton; [6]): 6
- Foliar treatment phytotoxicity, Cotton (cotton; [7]): 3
- Foliar treatment phytotoxicity, Cotton (cotton; [8]): 8
- Foliar treatment phytotoxicity, Rice (rice; [9]): 4
- Foliar treatment phytotoxicity, Rice (rice; [10]): 6
- Foliar treatment phytotoxicity, Rice (rice; [11]): 5
- Foliar treatment phytotoxicity, Rice (rice; [12]): 7
- Foliar treatment phytotoxicity, Soybean (soybean; [13]): 4
- Foliar treatment phytotoxicity, Soybean (soybean; [14]): 6
- Foliar treatment phytotoxicity, Soybean (soybean; [15]): 4
- Foliar treatment phytotoxicity, Soybean (soybean; [16]): 6
- Foliar treatment phytotoxicity, Wheat (wheat; [17]): 0
- Foliar treatment phytotoxicity, Wheat (wheat; [18]): 0
- Foliar treatment phytotoxicity, Wheat (wheat; [19]): 0
- Foliar treatment phytotoxicity, Wheat (wheat; [20]): 0
